Here are results for 8 molecules from PubChem BioAssay (NCI).

Values joined by “and” are separate entries in the source; they are usually repeats but may differ in a detail not shown here. Identical values can stand only once.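 Following 48 hours of exposure in 96-well plates, responses at five concentrations were used to interpolate endpoints linearly. At the GI50, growth is halved. TGI: total growth inhibition.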

Some test systems named below: HOP-62 NSCLC; BT-549 breast; UO-31 renal; CCRF-CEM leukemia; K-562 leukemia; RXF 393 renal; HS 578T breast; NCI/ADR-RES ovarian; SNB-19 CNS; SF-539 CNS.
Holding throughout (assay): NCI anticancer screen, dose series, 48 h

As to `COc1ccc(-c2c(-c3cc(OC)c(OC)c(OC)c3)noc2N)cc1`, the GI50 with HOP-62 NSCLC was 0.0239 µM; with BT-549 breast, 0.0215 µM; with CCRF-CEM leukemia it was 0.0307 µM; in the assay on K-562 leukemia, below 10 nM; with RXF 393 renal, below 0.01 µM; with HS 578T breast, below 0.0104 µM. Further, the GI50 is below 0.01 µM with NCI/ADR-RES ovarian and 0.0342 µM with SNB-19 CNS. The TGI was 38.9 µM with HOP-62 NSCLC; 0.0673 µM in the assay on BT-549 breast; above 100 µM with UO-31 renal; above 100 µM with CCRF-CEM leukemia; above 100 µM in the assay with K-562 leukemia; 19.8 µM in the assay on RXF 393 renal. Moreover, the TGI was above 75.9 µM with HS 578T breast, 0.0226 µM in the assay on NCI/ADR-RES ovarian and above 100 µM in the assay on SNB-19 CNS.

As for `c1ccc(CN=C(NCc2ccccc2)NCc2ccccc2)cc1`, the GI50 in the assay with HOP-62 NSCLC was 12.7 µM; in the assay with SF-539 CNS, 11.9 µM; in the assay with UO-31 renal it was 3.07 µM; with CCRF-CEM leukemia, 10.2 µM; in the assay with K-562 leukemia it was 2600 nM; in the assay on RXF 393 renal it was 14.3 µM. Moreover, the GI50 with HS 578T breast is 10.3 µM; with NCI/ADR-RES ovarian it was 30.6 µM; with SNB-19 CNS it was 11 µM. The TGI in the assay on HOP-62 NSCLC was 25.9 µM; in the assay on SF-539 CNS, 27.5 µM; with UO-31 renal, 15.2 µM; with CCRF-CEM leukemia, 62.5 µM; in the assay on K-562 leukemia, 11.9 µM; with RXF 393 renal it was 28.2 µM. Besides, the TGI in the assay with HS 578T breast is 27.3 µM; in the assay with NCI/ADR-RES ovarian, above 100 µM; in the assay on SNB-19 CNS, 25 µM.

On to `COc1cc(OC)c(NC(=O)c2cc3ccccc3cc2O)cc1Cl`, for which the GI50 is 1.98 µM in the assay on HOP-62 NSCLC; 4.33 µM with BT-549 breast; 3.04 µM in the assay with SF-539 CNS; 1.71 µM in the assay on UO-31 renal; 4420 nM in the assay on K-562 leukemia; 3.82 µM with RXF 393 renal. Moreover, the GI50 is 2.72 µM in the assay on HS 578T breast, 2.63 µM with NCI/ADR-RES ovarian and 4.82 µM in the assay on SNB-19 CNS. The TGI in the assay on HOP-62 NSCLC was 6.84 µM; in the assay with BT-549 breast, 66 µM; in the assay on SF-539 CNS, 12.9 µM; with UO-31 renal, 8.33 µM; in the assay with K-562 leukemia it was above 100 µM; with RXF 393 renal, 8.51 µM. In addition, the TGI was 8.95 µM with HS 578T breast, 9.33 µM in the assay with NCI/ADR-RES ovarian and above 100 µM in the assay on SNB-19 CNS.

For the molecule `Cc1cc2c(c3oc(C4(C)OC4C4OC4C)cc(=O)c13)C(=O)c1c(O)c(C3CC(C)(N(C)C)C(O)C(C)O3)cc(C3CC(N(C)C)C(O)C(C)O3)c1C2=O` (stereo not drawn), the GI50 in the assay with BT-549 breast was 0.000234 µM; with SF-539 CNS, 0.000117 µM; in the assay with UO-31 renal it was 0.00638 µM; in the assay on CCRF-CEM leukemia, 0.00013 µM; in the assay on K-562 leukemia, 0.0838 nM and 0.124 nM; with RXF 393 renal, below 1e-05 µM. In addition, in the assay with HS 578T breast, the GI50 was 0.00158 µM. Moreover, the TGI in the assay with BT-549 breast is 0.000414 µM and 0.00222 µM; in the assay on UO-31 renal, 0.0143 µM and 0.00225 µM; with CCRF-CEM leukemia, 0.0499 µM and 0.041 µM; in the assay with K-562 leukemia, 0.0147 µM and 0.0192 µM and 0.0348 µM; in the assay on RXF 393 renal it was 7.97e-05 µM and 0.000406 µM; with HS 578T breast it was 0.00405 µM and 0.00187 µM. Moreover, the TGI in the assay on SNB-19 CNS was 0.0713 µM and 0.00863 µM and 0.0158 µM.

With `C=C(C)[C@@H]1CC[C@]2(CO)CC[C@]3(C)[C@H](CC[C@@H]4[C@@]5(C)CCC(NCCc6ccc(O)cc6)C(C)(C)[C@@H]5CC[C@]43C)[C@@H]12` (stereo partly drawn), the GI50 is 1.75 µM in the assay on BT-549 breast; 1.63 µM with SF-539 CNS; 1.32 µM in the assay on UO-31 renal; 1.67 µM with CCRF-CEM leukemia; 310 nM with K-562 leukemia; 1.63 µM in the assay with NCI/ADR-RES ovarian. Further, the TGI in the assay on BT-549 breast worked out at 3.27 µM; with SF-539 CNS it was 3.04 µM; with UO-31 renal, 2.69 µM; in the assay with CCRF-CEM leukemia it was 4.14 µM; in the assay with K-562 leukemia, 1.66 µM; in the assay with NCI/ADR-RES ovarian, 3.45 µM.

On to `O=C(NCc1ccco1)c1ccc(NC2=C(Cl)C(=O)N(Cc3ccccc3)C2=O)cc1`, for which the GI50 in the assay with HOP-62 NSCLC is 16.5 µM; in the assay on BT-549 breast, 17.9 µM; in the assay on SF-539 CNS, 22.2 µM; in the assay with UO-31 renal, 22.2 µM; in the assay on K-562 leukemia, 21200 nM; in the assay with RXF 393 renal, 40.1 µM. Moreover, the values for the GI50 with HS 578T breast, in the assay on NCI/ADR-RES ovarian and in the assay on SNB-19 CNS were 43.3 µM, 18.3 µM and 21.3 µM, respectively. Moreover, the TGI in the assay with HOP-62 NSCLC is 31.7 µM; with BT-549 breast, 36.5 µM; in the assay with SF-539 CNS it was 41 µM; in the assay with UO-31 renal, 57.7 µM; in the assay with K-562 leukemia it was 49.7 µM; in the assay on RXF 393 renal, above 100 µM. The TGI is above 100 µM with HS 578T breast, 39.5 µM with NCI/ADR-RES ovarian and 45.6 µM with SNB-19 CNS.

`CCCCCCCCCCCCOC1C(C(CC(=O)N2CCN(c3cccc(C(F)(F)F)c3)CC2)NS(=O)(=O)c2cc(Cl)cc(Cl)c2)OC2OC(C)(C)OC21` (stereo not drawn): the GI50 in the assay with HOP-62 NSCLC is above 100 µM; in the assay with BT-549 breast, above 100 µM; in the assay on SF-539 CNS it was above 100 µM; in the assay on UO-31 renal it was above 100 µM; in the assay on K-562 leukemia, above 100000 nM; in the assay with RXF 393 renal it was above 100 µM. The GI50 in the assay on HS 578T breast, in the assay on NCI/ADR-RES ovarian and in the assay with SNB-19 CNS was above 100 µM in each case. Moreover, the TGI with HOP-62 NSCLC, in the assay on BT-549 breast, in the assay on SF-539 CNS, with UO-31 renal, in the assay on K-562 leukemia and in the assay on RXF 393 renal was above 100 µM each time. Besides, the TGI in the assay with HS 578T breast, with NCI/ADR-RES ovarian and in the assay with SNB-19 CNS was above 100 µM in each case.

Regarding `O=C1OC(c2ccccc2)(c2cc(Br)c(O)c(Br)c2)c2ccccc21` (stereo not drawn), the GI50 with HOP-62 NSCLC was 17.9 µM; in the assay on SF-539 CNS, 26.6 µM; in the assay with UO-31 renal, 15.6 µM; in the assay on CCRF-CEM leukemia, 38.3 µM; in the assay on K-562 leukemia it was 32500 nM; with RXF 393 renal it was 18.6 µM. In addition, the GI50 in the assay with HS 578T breast was 18.5 µM; in the assay with NCI/ADR-RES ovarian, 26 µM; in the assay with SNB-19 CNS, 29.7 µM. Moreover, the TGI in the assay with HOP-62 NSCLC was 43.5 µM; in the assay on SF-539 CNS it was 80.6 µM; with UO-31 renal, 42.3 µM; with CCRF-CEM leukemia, above 100 µM; in the assay on K-562 leukemia it was above 100 µM; with RXF 393 renal, 36.4 µM. The TGI was 57.3 µM with HS 578T breast, 84.3 µM with NCI/ADR-RES ovarian and above 100 µM in the assay with SNB-19 CNS.
